Experimental data taken from the supplement of paper PMC10307832.

Tests used:
Experiment in all cases: relative viability (nuclei count vs DMSO), 5 days (fraction); higher = more cells survive
Tipifarnib + Trametinib = compound: Cn1cncc1[C@@](N)(c1ccc(Cl)cc1)c1ccc2c(c1)c(-c1cccc(Cl)c1)cc(=O)n2C [Tipifarnib] + CC(=O)Nc1cccc(-n2c(=O)n(C3CC3)c(=O)c3c(Nc4ccc(I)cc4F)n(C)c(=O)c(C)c32)c1 [Trametinib] (partner 0.02 µM)
In short: (§1)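 The day after seeding in 1536-well plates, lung cancer cell lines were treated by pin tool with a single drug, or with a fixed anchor-drug dose together with five library-drug doses (not always all listed) in √10 steps. After 5 days, a combined fix-and-stain solution (final 0.05% Triton X-100, 1% formaldehyde, 1 ug/ml Hoechst) was added. Nuclei counted on 4× images gave relative viability as treated counts over vehicle counts, reported as the median of duplicate plates.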

Tipifarnib + Lapatinib = compound: Cn1cncc1[C@@](N)(c1ccc(Cl)cc1)c1ccc2c(c1)c(-c1cccc(Cl)c1)cc(=O)n2C [Tipifarnib] + CS(=O)(=O)CCNCc1ccc(-c2ccc3ncnc(Nc4ccc(OCc5cccc(F)c5)c(Cl)c4)c3c2)o1 [Lapatinib] (partner 2 µM)
In short: as §1

Tipifarnib + Phenformin = compound: Cn1cncc1[C@@](N)(c1ccc(Cl)cc1)c1ccc2c(c1)c(-c1cccc(Cl)c1)cc(=O)n2C [Tipifarnib] + N=C(N)NC(=N)NCCc1ccccc1 [Phenformin] (partner 250 µM)
In short: as §1

Tipifarnib + Olaparib = compound: Cn1cncc1[C@@](N)(c1ccc(Cl)cc1)c1ccc2c(c1)c(-c1cccc(Cl)c1)cc(=O)n2C [Tipifarnib] + O=C(c1cc(Cc2n[nH]c(=O)c3ccccc23)ccc1F)N1CCN(C(=O)C2CC2)CC1 [Olaparib] (partner 8 µM)
In short: as §1

Cell Line | relative viability (Tipifarnib + Trametinib; first compound 0.01 µM) | relative viability (Tipifarnib + Trametinib; first compound 0.03162 µM) | relative viability (Tipifarnib + Trametinib; first compound 0.1 µM) | relative viability (Tipifarnib + Trametinib; first compound 0.3162 µM) | relative viability (Tipifarnib + Trametinib; first compound 1 µM) | relative viability (Tipifarnib + Lapatinib; first compound 0.01 µM) | relative viability (Tipifarnib + Lapatinib; first compound 0.03162 µM) | relative viability (Tipifarnib + Lapatinib; first compound 0.1 µM) | relative viability (Tipifarnib + Lapatinib; first compound 0.3162 µM) | relative viability (Tipifarnib + Lapatinib; first compound 1 µM) | relative viability (Tipifarnib + Phenformin; first compound 0.01 µM) | relative viability (Tipifarnib + Phenformin; first compound 0.03162 µM) | relative viability (Tipifarnib + Phenformin; first compound 0.1 µM) | relative viability (Tipifarnib + Phenformin; first compound 0.3162 µM) | relative viability (Tipifarnib + Phenformin; first compound 1 µM) | relative viability (Tipifarnib + Olaparib; first compound 0.01 µM) | relative viability (Tipifarnib + Olaparib; first compound 0.03162 µM) | relative viability (Tipifarnib + Olaparib; first compound 0.1 µM) | relative viability (Tipifarnib + Olaparib; first compound 0.3162 µM) | relative viability (Tipifarnib + Olaparib; first compound 1 µM)
COR-L 105 | 0.409 | 0.491 | 0.427 | 0.43 | 0.369 | 0.418 | 0.317 | 0.349 | 0.378 | 0.296 | 0.387 | 0.389 | 0.447 | 0.339 | 0.281 | 0.691 | 0.725 | 0.59 | 0.546 | 0.584
LK-2 | 0.613 | 0.971 | 0.766 | 0.559 | 0.597 | 0.824 | 0.801 | 0.8 | 0.678 | 0.629 | 0.471 | 0.11 | 0.428 | 0.248 | 0.184 | 0.779 | 0.651 | 0.443 | 0.329 | 0.347
NCI-H727 | 0.425 | 0.395 | 0.379 | 0.384 | 0.404 | 1.01 | 0.843 | 0.755 | 0.578 | 0.607 | 0.529 | 0.501 | 0.544 | 0.617 | 0.539 | 0.702 | 0.685 | 0.866 | 0.802 | 0.901
RERF-LC-KJ | 0.828 | 0.961 | 0.776 | 0.652 | 0.646 | 0.94 | 0.922 | 0.829 | 0.732 | 0.626 | 0.447 | 0.401 | 0.392 | 0.366 | 0.339 | 0.993 | 0.898 | 0.864 | 0.718 | 0.699
NCI-H2023 | 0.46 | 0.373 | 0.403 | 0.228 | 0.234 | 1.01 | 0.544 | 0.348 | 0.357 | 0.105 | 0.415 | 0.381 | 0.273 | 0.272 | 0.236 | 0.489 | 0.36 | 0.373 | 0.298 | 0.343
NCI-H322M | 0.492 | 0.565 | 0.519 | 0.542 | 0.548 | 0.637 | 0.662 | 0.622 | 0.688 | 0.505 | 0.868 | 0.749 | 0.799 | 0.682 | 0.66 | 0.825 | 0.772 | 0.884 | 0.774 | 0.91
NCI-H1666 | 0.832 | 0.798 | 0.846 | 0.811 | 0.679 | 0.666 | 0.61 | 0.591 | 0.474 | 0.388 | 0.526 | 0.502 | 0.552 | 0.471 | 0.575 | 0.737 | 0.672 | 0.779 | 0.731 | 0.721
NCI-H1648 | 0.481 | 0.414 | 0.523 | 0.466 | 0.481 | – | – | – | – | – | – | – | – | – | – | 0.868 | 0.757 | 0.572 | 0.533 | 0.456
NCI-H2087 | 0.157 | 0.221 | 0.235 | 0.145 | 0.14 | 0.934 | 0.493 | 0.475 | 0.404 | 0.344 | 0.463 | 0.38 | 0.298 | 0.294 | 0.222 | 0.538 | 0.499 | 0.341 | 0.281 | 0.275
